This test deals with nude mice, LX-1 lung xenograft intrarenal, tumor weight T/C. In words: NCI In Vivo Anticancer Drug Screen. Data for tumor model Human Lung LX-1 Xenograft (intrarenal inoculation) in NU/NU Swiss (nude) mice. The conditions noted are these: endpoint: mean tumor weight change, higher = larger tumour. An outline of the steps: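 Antitumor effect is expressed as a ratio: the mean tumor measurement of the drug-treated group relative to that of the vehicle-dosed control group.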
A general note: A xenograft is tissue or cells of one species grown in another, often human tumour cells in immunodeficient mice.

The mark [1] stands for this setting: dose: 300.0 mg/kg/injection, schedule: Q04DX003 (sc), vehicle: Klucel (hydroxypropylcellulose) (HPC).
Where [2] appears, read: dose: 600.0 mg/kg/injection, schedule: Q04DX003 (sc), vehicle: Klucel (hydroxypropylcellulose) (HPC).
Where [3] appears, read: dose: 1200.0 mg/kg/injection, schedule: Q04DX003 (sc), vehicle: Klucel (hydroxypropylcellulose) (HPC).
Where [4] appears, read: dose: 2400.0 mg/kg/injection, schedule: Q04DX003 (sc), vehicle: Klucel (hydroxypropylcellulose) (HPC).
Where [5] appears, read: dose: 50.0 mg/kg/injection, schedule: Q01DX010 (sc), vehicle: saline.
The mark [6] stands for this setting: dose: 100.0 mg/kg/injection, schedule: Q01DX010 (sc), vehicle: saline.
Setting [7] is: dose: 6.25 mg/kg/injection, schedule: Q01DX010 (sc), vehicle: saline.
Setting [8] is: dose: 12.5 mg/kg/injection, schedule: Q01DX010 (sc), vehicle: saline.
Where [9] appears, read: dose: 75.0 mg/kg/injection, schedule: Q04DX003 (sc), vehicle: saline with Tween-80.
The mark [10] stands for this setting: dose: 150.0 mg/kg/injection, schedule: Q04DX003 (sc), vehicle: saline with Tween-80.
Where [11] appears, read: dose: 300.0 mg/kg/injection, schedule: Q04DX003 (sc), vehicle: saline with Tween-80.
Where [12] appears, read: dose: 1200.0 mg/kg/injection, schedule: Q04DX003 (sc), vehicle: saline with Tween-80.
Setting [13] is: dose: 75.0 mg/kg/injection, schedule: Q04DX003 (sc), vehicle: saline.
Where [14] appears, read: dose: 150.0 mg/kg/injection, schedule: Q04DX003 (sc), vehicle: saline.
Setting [15] is: dose: 600.0 mg/kg/injection, schedule: Q04DX003 (sc), vehicle: saline with Tween-80.
[16] abbreviates: dose: 200.0 mg/kg/injection, schedule: Q04DX003 (sc), vehicle: saline with Tween-80.

Values joined by “and” are separate entries in the source; they are usually repeats but may differ in a detail not shown here. Identical values can stand only once. Inconclusive results are not listed.

Take `OC1CCCC2CCC[N-]C12.OC1CCCC2CCC[N-]C12.[Mn+2]` (centres undefined): the T/C under setting [1] is 95 % of control, the T/C under setting [2] was 52 % of control, the T/C under setting [3] was 46 % of control and the T/C under setting [4] is 63 % of control.
On to `C[C@@]1(CO)[C@H](O)CC[C@@]2(C)[C@H]1CC[C@H]1C[C@@H]3C[C@@]12CC[C@@]3(O)COC(=O)CN`, for which the T/C is 101 % of control (dose: 133.0 mg/kg/injection, schedule: Q01DX010 (sc), vehicle: saline + alcohol); 106 % of control (dose: 200.0 mg/kg/injection, schedule: Q01DX010 (sc), vehicle: saline + alcohol); 102 % of control (dose: 62.5 micrograms/kg/injection, schedule: Q01DX010 (sc), vehicle: saline + alcohol); 115 % of control (dose: 500.0 micrograms/kg/injection, schedule: Q01DX010 (sc), vehicle: saline + alcohol).
Turning to `NC1=NCN(C2OC(CO)C(O)C2O)C(=O)N1` (centres undefined), the T/C is, setting by setting: (dose: 25.0 mg/kg/injection, schedule: Q01DX010 (sc), vehicle: saline) 117 % of control; under setting [5], 174 % of control; (dose: 83.3 mg/kg/injection, schedule: Q04DX003 (ip), vehicle: saline) 117 % of control; (dose: 100.0 mg/kg/injection, schedule: Q01DX010 (ip), vehicle: saline) 62 % of control; under setting [6], 86 % of control; (dose: 166.66 mg/kg/injection, schedule: Q04DX003 (ip), vehicle: saline) 89 % of control. Further, the T/C by setting is: (dose: 333.33 mg/kg/injection, schedule: Q04DX003 (ip), vehicle: saline) 56 % of control; (dose: 666.65 mg/kg/injection, schedule: Q04DX003 (ip), vehicle: saline) 39 % of control.
In the case of `C[C@]12CCC(=O)C=C1CC[C@@H]1[C@@H]2C(=O)C[C@@]2(C)[C@H]1CC[C@]2(O)C(=O)CO`, the T/C is, setting by setting: under setting [1], 38 % of control; under setting [2], 34 % of control; under setting [3], 52 % of control.
Turning to `O=c1[nH]c(=O)n(C2CC(O)C(CO)O2)cc1I` (centres undefined), the T/C (dose: 50.0 mg/kg/injection, schedule: Q01DX010 (sc), vehicle: saline with Tween-80) was 71 % of control.
Take `O=C1C=CC(n2cc(F)c(=O)[nH]c2=O)O1` (centres undefined): the T/C (dose: 25.0 mg/kg/injection, schedule: Q04DX003 (sc), vehicle: Klucel (hydroxypropylcellulose) (HPC)) was 57 % of control; the T/C (dose: 50.0 mg/kg/injection, schedule: Q04DX003 (sc), vehicle: Klucel (hydroxypropylcellulose) (HPC)) was 60 % of control; the T/C (dose: 100.0 mg/kg/injection, schedule: Q04DX003 (sc), vehicle: Klucel (hydroxypropylcellulose) (HPC)) is 46 % of control.
Regarding `COc1ccc2c(NCCCCCCCCNc3c4ccccc4nc4cc(OC)ccc34)c3ccccc3nc2c1`, the T/C was 96 % of control (dose: 2.0 mg/kg/injection, schedule: Q04DX003 (sc), vehicle: suspension in saline) and 64 % of control (dose: 16.0 mg/kg/injection, schedule: Q04DX003 (sc), vehicle: suspension in saline).
For the compound `CCCCNC(C)[C@]1(O)Cc2c(O)c3c(c(O)c2[C@@H](OC2CC(N)C(O)C(C)O2)C1)C(=O)c1c(OC)cccc1C3=O` (some centres undefined), the T/C reads like this: under setting [7], 69 % of control; under setting [8], 68 % of control.
In the case of `CC1=C(/C=C/C(C)=C/C=C/C(C)=C/C=O)C(C)(C)CCC1`, the T/C was 94 % of control under setting [9]; 68 % of control under setting [10]; 56 % of control and 74 % of control under setting [11]; 57 % of control under setting [12].
`COC1=CC(=O)C(OC)=C(OC)C1=O`: the T/C was 122 % of control (dose: 38.0 mg/kg/injection, schedule: Q04DX003 (sc), vehicle: saline with Tween-80); 72 % of control under setting [9]; 104 % of control under setting [10]; 122 % of control under setting [11].
Turning to `S=C=NCCc1ccccc1`, the T/C (dose: 200.0 mg/kg/injection, schedule: Q01DX010 (sc), vehicle: saline with Tween-80) was 68 % of control.
Regarding `O=C1C(O)=C(c2ccccc2)C(=O)C(O)=C1c1ccccc1`, the T/C under setting [13] was 80 % of control and the T/C under setting [14] is 71 % of control.
On to `Cc1c2ccc3ccccc3c2c[n+]2ccccc12`, for which the T/C reads like this: (dose: 4.69 mg/kg/injection, schedule: Q04DX003 (sc), vehicle: Klucel (hydroxypropylcellulose) (HPC)) 110 % of control; (dose: 9.38 mg/kg/injection, schedule: Q04DX003 (sc), vehicle: Klucel (hydroxypropylcellulose) (HPC)) 87 % of control; (dose: 18.75 mg/kg/injection, schedule: Q04DX003 (sc), vehicle: Klucel (hydroxypropylcellulose) (HPC)) 72 % of control.
`COc1ccc(CC2C(=O)NC(C)C(=O)N(C)C3C(=O)N(C)C(Cc4ccc(O)c(c4)Oc4ccc(cc4)C3O)C(=O)NC(C)C(=O)NC(C)C(=O)N2C)cc1` (centres undefined): the T/C was 69 % of control (dose: 0.5 mg/kg/injection, schedule: Q01DX010 (sc), vehicle: saline with Tween-80); 85 % of control (dose: 1.0 mg/kg/injection, schedule: Q01DX010 (sc), vehicle: saline with Tween-80); 96 % of control (dose: 2.0 mg/kg/injection, schedule: Q01DX010 (sc), vehicle: saline with Tween-80); 40 % of control (dose: 4.0 mg/kg/injection, schedule: Q01DX010 (sc), vehicle: saline with Tween-80).
As for `CC(C)NC(=O)N(CCCCBr)N=O`, the T/C (dose: 75.0 mg/kg/injection, schedule: Q04DX003 (sc), vehicle: Klucel (hydroxypropylcellulose) (HPC)) is 95 % of control; the T/C (dose: 150.0 mg/kg/injection, schedule: Q04DX003 (sc), vehicle: Klucel (hydroxypropylcellulose) (HPC)) is 52 % of control; the T/C under setting [1] was 44 % of control.
For the compound `CCc1ccc(C2=C(O)C(=O)C(c3ccccc3)=C(O)C2=O)cc1`, the T/C is 104 % of control under setting [1], 49 % of control under setting [2] and 36 % of control under setting [3].
Turning to `O=P1(NCCCl)OCCCN1CCCl` (centres undefined), the T/C is 93 % of control under setting [13] and 109 % of control under setting [14].
Turning to `CC(Cc1ccc(O)cc1)NCC(O)c1ccc(O)c(O)c1` (centres undefined), the T/C is, setting by setting: under setting [11], 62 % of control; under setting [15], 98 % of control; under setting [12], 61 % of control.
As for `Cc1c2ccncc2c(C)c2c1[nH]c1ccccc12`, the T/C under setting [7] was 24 % of control; the T/C under setting [8] is 85 % of control; the T/C under setting [5] was 72 % of control and 75 % of control; the T/C under setting [6] is 59 % of control.
For `COC1=C(N)C(=O)c2nc(-c3nc(C(=O)O)c(C)c(-c4ccc(OC)c(OC)c4O)c3N)ccc2C1=O`, the T/C is, setting by setting: (dose: 0.13 mg/kg/injection, schedule: Q01DX010 (sc), vehicle: saline) 8 % of control; (dose: 0.25 mg/kg/injection, schedule: Q01DX010 (sc), vehicle: saline) 7 % of control and -6 % of control; (dose: 1.0 mg/kg/injection, schedule: Q01DX010 (sc), vehicle: saline) -85 % of control.
Turning to `COc1ccc([I+]c2cccc(Cl)c2)cc1Cl`, the T/C is, setting by setting: under setting [9], 93 % of control; under setting [10], 86 % of control; under setting [11], 85 % of control; under setting [15], 74 % of control; under setting [12], 83 % of control.
For the compound `C/C=C/C=C1/OC(C)=C(C(C)=O)C1=O`, the T/C reads like this: (dose: 100.0 mg/kg/injection, schedule: Q04DX003 (sc), vehicle: saline with Tween-80) 107 % of control; under setting [16], 97 % of control; (dose: 400.0 mg/kg/injection, schedule: Q04DX003 (sc), vehicle: saline with Tween-80) 110 % of control; (dose: 800.0 mg/kg/injection, schedule: Q04DX003 (sc), vehicle: saline with Tween-80) 92 % of control.
As for `C=C(C)C(=NC(C)(C)C)Nc1ccccc1`, the T/C was 62 % of control (dose: 50.0 mg/kg/injection, schedule: Q04DX003 (sc), vehicle: saline with Tween-80) and 34 % of control under setting [16].
Consider `CONc1ccn(C2OC(CO)C(O)C2O)c(=O)n1` (centres undefined), for which the T/C (dose: 300.0 mg/kg/injection, schedule: Q04DX003 (sc), vehicle: saline) is 62 % of control.
For `CCCCCC(=O)O[C@]1(C(C)=O)CC[C@H]2[C@@H]3CCC4=CC(=O)CC[C@]4(C)[C@H]3CC[C@@]21C`, the T/C under setting [1] was 91 % of control, the T/C under setting [2] is 112 % of control, the T/C under setting [3] was 103 % of control and the T/C under setting [4] was 84 % of control.

The record behind these values is PubChem BioAssay AID264 (DTP/NCI, 2004).
